Experimental data as given in US20240050403A1, “THERAPY OF POST-OPERATIVE EMESIS WITH AMISULPRIDE” (Acacia Pharma Limited, priority 2016, published 2024).
“And” between values parts separate entries of the source, which are not always exact repeats. Equal entries are not always repeated.

What was measured:
Assay type in all cases: in vivo, human
[1] = system: adult, surgical patients at high risk of PONV; assay: Study 1: Phase III study of amisulpride as combination prophylaxis against PONV in high-risk patients
Protocol: A randomised, double-blind, placebo-controlled Phase Ill study of amisulpride as combination prophylaxis against post-operative nausea and vomiting in high-risk patients was conducted. The primary aim of the study was to assess the efficacy of amisulpride at 5 mg in the prevention of post-operative nausea and vomiting (PONV) in adult, surgical patients at high risk of PONV. The amisulpride was administered in combination with a standard anti-emetic.
The subjects of the study were 1204 randomised adult patients ([…]) at high risk of PONV who were undergoing elective ambulatory (day-case) or in-patient surgery under general inhalational anaesthesia for an expected duration of at least one hour from induction of anaesthesia to extubation. Of the 1204 randomised patients, 1147 were dosed and eligible.
High risk of PONV was defined as having at least three of the following risk factors: • Past history of PONV and/or motion sickness • Habitual non-smoking status • Female • Expected use of post-operative opioid analgesia
5 mg amisulpride was administered as a single, slow, intravenous (IV) push over one minute at the time of induction of anaesthesia; given in combination with a standard anti-emetic. Examples of standard anti-emetics used were ondansetron, granisetron and dexamethasone.
The two arms of the study were as follows: • Arm 1: amisulpride IV at 5 mg in combination with a standard anti-emetic which is not a dopamine D2-antagonist (e.g. ondansetron IV at 4 mg, granisetron IV at 1 mg, or dexamethasone IV at 4 mg); • Arm 2 (control): amisulpride IV placebo in combination with a standard anti-emetic, as defined above • The primary efficacy variable was the absence or presence of PONV during the 24-hour post-operative period, where PONV was defined as the occurrence of one or more emetic episodes (vomiting and/or retching) or the receipt of one or more doses of rescue anti-emetic medication. Absence of PONV by this definition was termed “Complete Response” (CR). A number of secondary variables were evaluated including the occurrence of emesis (vomiting and/or retching).
A comparison of the incidence of CR in the 0-24-hour period after surgery between the amisulpride group and the placebo group using Pearson's x2 test with Yates's continuity correction at a one-sided significance level of 2.5%. The primary efficacy analysis population was the modified intent-to-treat (mITT) population.
Secondary efficacy variables assessed by incidence (e.g., emesis) were compared between the groups using Pearson's x2 test.

adult surgical patients [2] = assay: Phase II clinical trial, multi-centre, double-blind, randomised, placebo-controlled, PONV incidence
Protocol: In a multi-centre, double-blind, randomised, placebo-controlled Phase II clinical trial in adult surgical patients (conducted by the applicant), administration of amisulpride at 5 mg was associated with a PONV incidence of 40%, compared to 69% with placebo (p<0.01).

adult surgical patients [3] = assay: Two Phase III clinical trials, multi-centre, double-blind, randomised, placebo-controlled, PONV incidence
Protocol: In two multi-centre, double-blind, randomised, placebo-controlled Phase III clinical trials involving 626 evaluable, adult surgical patients (again conducted by the applicant), administration of amisulpride at 5 mg was associated with a PONV incidence of 48%, compared to 59% with placebo (p<0.01).

CCN1CCCC1CNC(=O)c1cc(S(=O)(=O)CC)c(N)cc1OC (racemic) [Amisulpride, amisulpride] was tested, and the “Calculated RRR (relative risk reduction) of post-operative emesis” value ([1]; 5 mg IV plus a standard anti-emetic versus placebo plus standard anti-emetic) was 30.94%, the “Calculated RRR (relative risk reduction) of PONV” value ([1]; 5 mg IV plus a standard anti-emetic versus placebo plus standard anti-emetic, 24 hour period) was 20.8% and 20.76% and the “Calculated RRR (relative risk reduction) of post-operative emesis” value ([1]; 5 mg IV plus a standard anti-emetic versus placebo plus standard anti-emetic, listed as amisulpride) was 31%. For the same compound, the “Difference in PONV rate (improvement in CR rate) versus placebo plus standard anti-emetic” value ([1]; 5 mg IV plus a standard anti-emetic, 24 hour period, mITT, p<0.001) was 11.08%, the “Number of patients with PONV” value ([1]; 5 mg IV plus a standard anti-emetic, 24 hour period, of 572 patients) was 242 and the “Number of patients with CR (complete response)” value ([1]; 5 mg IV plus a standard anti-emetic, 24 hour period, of 572 patients (mITT)) was 330. The “% patients with PONV” value ([1]; 5 mg IV plus a standard anti-emetic, 24 hour period, placebo plus standard anti-emetic 53.39) was 42.31%, the “Number of patients with post-operative emesis (vomiting and/or retching)” value ([1]; 5 mg IV plus a standard anti-emetic, of 572 patients) was 79 and the “Difference in post-operative emesis rate versus placebo plus standard anti-emetic” value ([1]; 5 mg IV plus a standard anti-emetic, p=0.003) was 6.19%. For the same compound, the “% patients with post-operative emesis (vomiting and/or retching)” value ([1]; 5 mg IV plus a standard anti-emetic, placebo plus standard anti-emetic 20.00) was 13.81%, the PONV incidence (adult surgical patients [2]; amisulpride at 5 mg, placebo 69% (p<0.01)) was 40% and the “adverse events, laboratory or ECG abnormalities versus placebo” value (adult surgical patients [2]; amisulpride versus placebo) was “no difference in the nature, incidence or severity of adverse events, or of laboratory or ECG abnormalities”. For the same compound, the PONV incidence (adult surgical patients [3]; amisulpride at 5 mg, 626 evaluable patients, placebo 59% (p<0.01)) was 48%, the “safety profile versus placebo” value (adult surgical patients [3]; amisulpride versus placebo) was “no significant difference between the safety profiles” and the “transient increases in serum prolactin levels” value (adult surgical patients [3]; amisulpride versus placebo) was “more common with amisulpride”.
